Laboratory results published in patent US6040337A, “5-demethoxyfumagillol derivatives and processes for preparing the same” (priority 1998, dated 2000).
In brackets after ≈: the same amount, converted by molar mass. Like-named read-outs stand apart in the source and are kept apart here.

How the values were obtained:
[1] = system: CPAE (Calf Pulmonary Artery Endothelial) cells; assay: Inhibiting activity on angiogenesis (in vitro), CPAE cells, SRB method; assay type: cell-based; conditions: Bos taurus, Endothelial cell, 96 h, read-out: IC50, CPAE
Method: (§1) Examination of the Inhibiting Activity on Angiogenesis (In Vitro)
(§2) The compound sample dissolved in DMSO was diluted to ten times by using MEM culture medium (in case of CPAE cells) without adding FBS (Fetal Bovine Serum) and RPMI 1640 culture (in case of EL-4 and P388D1 cells), and 20 of the solution was poured to each well of 96 well plate in triplicate for every concentration gradient. Then, each cell suspension was prepared and poured to examine the inhibiting activity on angiogenesis.
In case of CPAE (Calf Pulmonary Artery Endothelial) cells (used after 2-3 subcultures), a cell suspension having 7×10^3 cells/ml was prepared with MEM (+10% FBS+50 μg/ml ECGS) medium, and after pouring the suspension (180 μl) to each well of 96 well plate, they were cultured in a CO2 incubator (5% CO2, humidified) for 4 days.

[2] = system: EL-4 (Lymphoma, murine) cells; assay: Inhibiting activity on angiogenesis (in vitro), EL-4 cells, MTT method; assay type: cell-based; conditions: Mus musculus, EL4, 72 h, read-out: IC50, EL-4
Method: as §1, §2
In case of EL-4 (Lymphoma, murine) and P388D1 (leukemia, mouse) cells, a cell suspension having 1×10^4 cells/ml was prepared with RPMI1640 (+10% FBS) culture medium, and after pouring the suspension (180 μl) to each well of 96 well plate, they were cultured in a CO2 incubator (5% CO2, humidified) for 3 days.

[3] = CPAE cells, 4 days culture, SRB method
[4] = EL-4 cells, 3 days culture, MTT method

SMILES | IC50 [2, 4] [ng/mL] | IC50 [1, 3] [ng/mL] | IC50 [1] [ng/mL] | IC50 [2] [ng/mL]
CC(C)=CC[C@H]1O[C@]1(C)[C@H]1C[C@H](OC(=O)/C=C/c2ccc(Cl)cc2)CC[C@]12CO2 [Example 8, 5-Demethoxy-6-O-(4-chlorocinnamoyl)fumagillol] | 0.26 (≈ 0.624 nM) | 0.32 (≈ 0.767 nM) |  | 
CO[C@@H]1[C@H](OC(=O)/C=C/C=C/C=C/C=C/C(=O)O)CC[C@]2(CO2)[C@H]1[C@@]1(C)O[C@@H]1CC=C(C)C [Fumagillin, reference compound] |  |  | 3.2 (≈ 6.98 nM) | 1.6 (≈ 3.49 nM)
CC(C)=CC[C@H]1O[C@]1(C)[C@H]1C[C@H](OC(=O)NC(=O)CCl)CC[C@]12CO2 [Example 5, 5-Demethoxy-6-O-chloroacetylcarbamoylfumagillol] |  |  | 0.28 (≈ 0.753 nM) | 0.52 (≈ 1.4 nM)
CC(C)=CC[C@H]1O[C@]1(C)[C@H]1C[C@H](OC(=O)NC(=O)CCl)CC[C@]1(O)CCl [Example 9, 4-O-chloroacetylcarbamoyl-l-chloromethyl-l-cyclohexanol] | 0.43 (≈ 1.05 nM) | 0.36 (≈ 0.882 nM) |  | 
CC(C)=CC[C@H]1O[C@]1(C)[C@H]1CC(=O)CC[C@]1(O)CCl [Example 4, 3-Chloromethyl-5-demethoxy-3-hydroxy-6-oxo-6-deoxyfumagillol] | 0.46 (≈ 1.6 nM) | 0.57 (≈ 1.99 nM) |  | 
COc1cc(/C=C/C(=O)O[C@@H]2CC[C@]3(CO3)[C@@H]([C@@]3(C)O[C@@H]3CC=C(C)C)C2)cc(OC)c1OC [Example 7, 5-Demethoxy-6-O-(3,4,5-trimethoxy)cinnamoyl fumagillol] | 0.066 (≈ 0.14 nM) | 0.042 (≈ 0.0889 nM) |  | 
CC(C)=CC[C@H]1O[C@]1(C)[C@H]1C[C@H](OC(=O)OCc2ccccc2)CC[C@]12CO2 [Example 11, O-benzyloxycarbonyl-5-demethoxyfumagillol] | 0.041 (≈ 0.106 nM) |  | 0.012 (≈ 0.031 nM) | 
CC(C)=CC[C@H]1O[C@]1(C)[C@H]1C[C@H](OC(=O)/C=C/C=C/C=C/C=C/C(=O)O)CC[C@]12CO2 [5-Demethoxy fumagillin, 5-demethoxyfumagillin, reference compound] | 21 (≈ 49 nM) | 28 (≈ 65.3 nM) |  | 

Second part, led by results:

IC50 [2, 4] [ng/mL] | SMILES | IC50 [1, 3] [ng/mL] | IC50 [1] [ng/mL] | IC50 [2] [ng/mL]
0.032 | CC(C)=CC[C@H]1O[C@]1(C)[C@H]1CC(=O)CC[C@]1(O)C[S+](C)C [Example 20, 2-(1,2-Epoxy-1,5-dimethyl-4-hexenyl)-1-dimethylsulfoniomethyl-4-oxo-1-cyclohexanol iodide] | 0.012 |  | 
0.82 (≈ 1.98 nM) | COc1ccc(CCC(=O)O[C@@H]2CC[C@]3(CO3)[C@@H]([C@@]3(C)O[C@@H]3CC=C(C)C)C2)cc1 [Example 10, 5-Demethoxy-6-O-[3-(4-methoxyphenyl)propionyl] fumagillol] | 0.46 (≈ 1.11 nM) |  | 
0.41 (≈ 0.966 nM) | CC(C)=CC[C@H]1O[C@]1(C)[C@H]1CC(NC(=O)/C=C/c2ccc(N(C)C)cc2)CC[C@]12CO2 (stereo partly shown) [Example 14, 6-(4-Dimethylaminocinnamoyl)amino-5-demethoxy-6-deoxyfumagillol] | 0.19 (≈ 0.447 nM) |  | 
